Assay results taken from patent US5976844A, “Riboflavin-production process by means of micro-organisms with modified isocitratlyase activity” (BASF Aktiengesellschaft, priority 1995, dated 1999).
Like-named read-outs stand apart in the source and are kept apart here. One block for each compound: values may come before it.

Molecular target: Ashbya gossypii ICL (isocitrate lyase) (Eremothecium gossypii, UniProt O94198)
Assay: Colorimetric test of purified isocitrate lyase (ICL) activity with inhibitors
Format: biochemical
Details: for inhibition at 1000 µM: read-out: inhibition of ICL activity
Excerpt: In order to identify substances exerting an inhibitory effect on ICL, the Ashbya gossypii ICL was first of all purified. The enzyme was isolated and purified after the fungal mycelium had been grown on vegetable oil. […] Approximately 78% of this activity is recovered in dissolved form in the supernatant after centrifuging at 40,000 g. Subsequent fractionation by means of ammonium sulfate precipitation results in a three-fold enrichment of the enzyme. After gel filtration through a Sephacryl S-300 column, the ICL is bound to the cation exchange material Mono S-Sepharose and eluted with NaCl. The resulting preparation is homogeneous by SDS polyacrylamide gel electrophoresis and has a specific activity of 18.4 U/mg.
The purified enzyme can be used to measure the effects of substances on its activity in a […] test (Dixon, H. and Kornberg, H. L. (1959), Biochem. J. 72, 3: Assay methods for key enzymes of the glyoxylate cycle). The effects of the tested substances on the enzyme are summarized and depicted in Table 2 and FIG. 1, respectively. Substances to be investigated included those which, as metabolites in the fungal cell, could have an inhibitory effect on the enzyme.

[1] = purified enzyme, concentration of 10 mM

Chain of Ashbya gossypii ICL (isocitrate lyase) (O94198 whole entry): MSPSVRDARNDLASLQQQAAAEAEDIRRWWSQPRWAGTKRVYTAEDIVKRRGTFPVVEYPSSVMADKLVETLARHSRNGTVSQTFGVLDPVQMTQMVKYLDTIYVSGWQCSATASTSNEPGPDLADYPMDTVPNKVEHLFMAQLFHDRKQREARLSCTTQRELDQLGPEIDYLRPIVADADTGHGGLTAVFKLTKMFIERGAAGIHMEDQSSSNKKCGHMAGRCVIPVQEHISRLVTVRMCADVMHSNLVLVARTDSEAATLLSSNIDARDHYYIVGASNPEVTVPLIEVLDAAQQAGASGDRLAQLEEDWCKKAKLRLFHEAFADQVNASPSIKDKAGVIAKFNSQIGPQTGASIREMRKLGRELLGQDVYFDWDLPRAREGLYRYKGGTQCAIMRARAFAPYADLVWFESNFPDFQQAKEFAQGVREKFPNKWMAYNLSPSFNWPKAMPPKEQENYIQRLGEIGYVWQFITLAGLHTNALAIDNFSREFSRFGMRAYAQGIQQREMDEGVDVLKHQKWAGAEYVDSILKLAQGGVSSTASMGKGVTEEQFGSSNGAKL

inhibition at 1000 µM (purified enzyme, concentration of 1 mM): 95%
SMILES: O=C(O)C(=O)O [oxalate]

inhibition at 10000 µM [1]: > 50%
SMILES: C=C(OP(=O)(O)O)C(=O)O [phosphoenolpyruvate]

SMILES: C=C(CC(=O)O)C(=O)O [itaconate]
inhibition at 1000 µM: 78%

SMILES: O=C(O)[C@H](O)[C@@H](O)[C@H](O)[C@H](O)COP(=O)(O)O [6-P-gluconate]
inhibition of ICL activity [1]: greater than 50%
